This is an account of results in US9708639B2, “Method for quantifying amino acids with pyrophosphate” (TOYAMA PREFECTURE, priority 2012, dated 2017).

Experiment in all cases: Qualitative test of AARS substrate specificity (molybdenum blue method)
What all share (format): biochemical, Thermotoga maritima MSB8 strain
Common to all, as to design: key: +: Activity was detected; −: Activity was not detected

One experiment deals with T1, Thermotoga-derived TyrRS (Thermotoga maritima, UniProt Q9WYU8).
T1 construct: The amplification products were each inserted into pET-28a to obtain plasmids for expression of respective AARSs; His tag (N); made in house; host or cells: Escherichia coli BL21 (DE3)
T1 sequence (Q9WYU8 1-401): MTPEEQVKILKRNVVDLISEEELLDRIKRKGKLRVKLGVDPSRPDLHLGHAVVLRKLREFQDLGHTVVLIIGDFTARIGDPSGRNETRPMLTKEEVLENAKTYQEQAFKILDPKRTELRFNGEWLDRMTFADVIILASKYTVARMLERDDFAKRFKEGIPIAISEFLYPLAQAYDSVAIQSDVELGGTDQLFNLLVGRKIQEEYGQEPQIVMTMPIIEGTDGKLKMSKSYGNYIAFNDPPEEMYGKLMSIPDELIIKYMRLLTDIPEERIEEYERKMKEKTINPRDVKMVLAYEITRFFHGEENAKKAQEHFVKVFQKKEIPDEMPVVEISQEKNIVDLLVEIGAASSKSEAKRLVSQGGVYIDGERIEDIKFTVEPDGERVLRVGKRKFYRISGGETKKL
The settings on record: Tyr 1 mM, other amino acids 5 mM; hydroxylamine 1000 mM; TyrRS 0.2 mg/ml (20 mU/ml); 30° C. As for the experimental part: (§1) A test sample containing an amino acid as the measurement subject and a reaction mixture for quantifying amino acid having the following composition were mixed. The mixture was left standing at 30° C. to allow the AARS reaction to advance. The mixture in a volume of 33 μl, 66 μl of water, and 1 μl of a 300 U/ml yeast pyrophosphatase solution were mixed, and left standing at room temperature for 20 minutes to allow the pyrophosphatase reaction to advance. Then, the reaction mixture was mixed with 100 μl of a color development solution A and 30 μl of a color developing solution B having the following compositions, then the mixture was left standing at room temperature for 5 minutes, and the absorbance was measured at 700 nm or 900 nm with a microplate reader.
(§2) Reaction mixture for quantifying amino acid: 20 mM Tris-HCl (pH 7.0), 5 mM MgCl2, 2 mM ATP, and AARS (concentrations are final concentrations obtained after mixing with test sample)
(§3) Color developing solution A: A solution obtained by mixing water and concentrated sulfuric acid at a ratio of 3:1 and dissolving (NH4)6Mo7O24.4H2O in the mixture at a concentration of 0.066 g/ml
(§4) Color developing solution B: A solution obtained by mixing water and concentrated sulfuric acid at a ratio of 10000:7 and dissolving FeSO4.7H2O in the mixture at a concentration of 145 mg/ml
(§5) Presence or absence of pyrophosphate generation was verified for the Thermotoga-derived CysRS, HisRS, LysRS, ProRS, SerRS, TrpRS, and TyrRS by using the AARS activity measurement method described in 9. and standard solutions of the various amino acids as test samples. AARSs were added to the reaction mixture at final concentrations of 0.3 (8 mU/ml), 0.1, 0.2 (3 mU/ml), 0.2, 0.1 (1 mU/ml), 0.1, 0.2 (20 mU/ml) mg/ml, respectively. The reaction mixtures were prepared so that the final concentration of Tyr was 1 mM, and the final concentrations of the other amino acids were 5 mM. As for the hydroxylamine concentration, it was added at a final concentration of 1000 mM for all the cases. Further, presence or absence of pyrophosphate production was also verified for the Thermus-derived MetRS and TyrRS by using the AARS activity measurement method described in 10. and standard solutions of the various amino acids as test samples. The reaction mixtures were prepared so that the final concentrations of the amino acids were 200 μM. Hydroxylamine was added at a final concentration of 400 mM.
(§6) Detection or no detection of the activity in the reaction mixtures containing a combination of each AARS and amino acid are shown in Table 2. The symbol + indicates detection of the activity, and − indicates no detection of the activity.

In the next experiment the target is T2, Thermotoga-derived ProRS (Thermotoga maritima, UniProt Q9WYY4).
T2 construct: His tag (C); made in house; host or cells: Escherichia coli BL21 (DE3)
T2 sequence (Q9WYY4 1-577): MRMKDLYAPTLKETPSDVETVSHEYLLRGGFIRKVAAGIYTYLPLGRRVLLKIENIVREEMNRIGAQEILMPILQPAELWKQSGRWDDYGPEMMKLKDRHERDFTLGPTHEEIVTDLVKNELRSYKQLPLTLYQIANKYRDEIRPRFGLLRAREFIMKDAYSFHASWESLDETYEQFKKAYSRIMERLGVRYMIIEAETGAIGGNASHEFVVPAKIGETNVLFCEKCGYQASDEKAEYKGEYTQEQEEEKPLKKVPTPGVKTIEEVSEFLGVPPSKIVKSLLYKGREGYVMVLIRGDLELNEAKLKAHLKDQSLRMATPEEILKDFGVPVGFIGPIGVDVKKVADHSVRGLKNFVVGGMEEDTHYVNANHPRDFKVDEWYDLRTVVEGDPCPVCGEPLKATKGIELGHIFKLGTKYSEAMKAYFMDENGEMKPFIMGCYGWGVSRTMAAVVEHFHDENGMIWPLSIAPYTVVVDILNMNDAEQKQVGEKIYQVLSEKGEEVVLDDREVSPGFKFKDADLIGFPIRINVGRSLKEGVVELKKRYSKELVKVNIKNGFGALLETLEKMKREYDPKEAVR
The settings on record: Tyr 1 mM, other amino acids 5 mM; hydroxylamine 1000 mM; ProRS 0.2 mg/ml; 30° C. As for the experimental part:
as §1, §2, §3, §4, §5, §6

The target of a further experiment is T3, Thermotoga-derived HisRS (Thermotoga maritima, UniProt Q9X0H5).
T3 construct: His tag (C); made in house; host or cells: Escherichia coli BL21 (DE3)
T3 sequence (Q9X0H5 1-420): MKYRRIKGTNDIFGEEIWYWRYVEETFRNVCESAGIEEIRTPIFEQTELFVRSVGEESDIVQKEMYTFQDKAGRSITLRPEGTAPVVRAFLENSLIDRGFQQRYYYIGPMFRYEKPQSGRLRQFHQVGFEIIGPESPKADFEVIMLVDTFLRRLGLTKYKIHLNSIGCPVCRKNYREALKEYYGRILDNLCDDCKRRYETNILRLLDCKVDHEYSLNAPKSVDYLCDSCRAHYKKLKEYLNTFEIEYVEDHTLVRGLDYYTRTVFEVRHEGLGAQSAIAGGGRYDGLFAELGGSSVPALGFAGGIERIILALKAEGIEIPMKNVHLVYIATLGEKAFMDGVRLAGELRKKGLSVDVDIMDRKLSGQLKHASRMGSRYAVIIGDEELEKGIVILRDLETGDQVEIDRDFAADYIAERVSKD
The settings on record: Tyr 1 mM, other amino acids 5 mM; hydroxylamine 1000 mM; HisRS 0.1 mg/ml; 30° C. As for the experimental part: as §1, §2, §3, §4, §5, §6

As for `C[C@H](N)C(=O)O` [Ala, L-alanine], at Thermotoga-derived TyrRS, the “Detection of the activity (pyrophosphate generation), TyrRS (Thermotoga)” value (from here on “Detection of the activity … (Thermotoga)”) is listed as “−”. Further, the “Detection of the activity (pyrophosphate generation), ProRS” value (“Detection of the activity … ProRS” below) on Thermotoga-derived ProRS is “−”. Moreover, the “Detection of the activity (pyrophosphate generation), HisRS” value (from here on “Detection of the activity … HisRS”) on Thermotoga-derived HisRS is “−”.
Turning to `N=C(N)NCCC[C@H](N)C(=O)O` [Arg, L-arginine], the “Detection of the activity … (Thermotoga)” value at Thermotoga-derived TyrRS is given as “−”. Also, the “Detection of the activity … ProRS” value on Thermotoga-derived ProRS was “−”. Further, on Thermotoga-derived HisRS, the “Detection of the activity … HisRS” value is “−”.
On to `NC(=O)C[C@H](N)C(=O)O` [Asn, L-asparagine], for which the “Detection of the activity … (Thermotoga)” value at Thermotoga-derived TyrRS is recorded as “−”. Further, the “Detection of the activity … ProRS” value at Thermotoga-derived ProRS is given as “−”. Besides, the “Detection of the activity … HisRS” value on Thermotoga-derived HisRS was “−”.
Consider `N[C@@H](CC(=O)O)C(=O)O` [Asp, L-aspartic acid], for which the “Detection of the activity … (Thermotoga)” value at Thermotoga-derived TyrRS is listed as “−”. Besides, the “Detection of the activity … ProRS” value at Thermotoga-derived ProRS is listed as “−”. Further, the “Detection of the activity … HisRS” value at Thermotoga-derived HisRS is “−”.
Regarding `N[C@@H](CS)C(=O)O` [Cys, L-cysteine], the “Detection of the activity … (Thermotoga)” value on Thermotoga-derived TyrRS is on record as “−”. Moreover, the “Detection of the activity … ProRS” value at Thermotoga-derived ProRS is “−”. Besides, at Thermotoga-derived HisRS, the “Detection of the activity … HisRS” value was “−”.
On to `NC(=O)CC[C@H](N)C(=O)O` [Gln, L-glutamine], for which the “Detection of the activity … (Thermotoga)” value at Thermotoga-derived TyrRS is “−”. Also, the “Detection of the activity … ProRS” value on Thermotoga-derived ProRS is “−”. Further, the “Detection of the activity … HisRS” value on Thermotoga-derived HisRS is on record as “−”.
Turning to `N[C@@H](CCC(=O)O)C(=O)O` [Glu, L-glutamic acid], the “Detection of the activity … (Thermotoga)” value on Thermotoga-derived TyrRS is “−”. The “Detection of the activity … ProRS” value on Thermotoga-derived ProRS is “−”. Also, at Thermotoga-derived HisRS, the “Detection of the activity … HisRS” value is listed as “−”.
As for `NCC(=O)O` [Gly, glycine], the “Detection of the activity … (Thermotoga)” value on Thermotoga-derived TyrRS is “−”. For the same molecule, at Thermotoga-derived ProRS, the “Detection of the activity … ProRS” value was “−”. Further, the “Detection of the activity … HisRS” value at Thermotoga-derived HisRS is on record as “−”.
As to `N[C@@H](Cc1c[nH]cn1)C(=O)O` [His, L-histidine], on Thermotoga-derived TyrRS, the “Detection of the activity … (Thermotoga)” value was “−”. Further, on Thermotoga-derived ProRS, the “Detection of the activity … ProRS” value is on record as “−”. The “Detection of the activity … HisRS” value at Thermotoga-derived HisRS is “+”.
Take `CC[C@H](C)[C@H](N)C(=O)O` [Ile, L-isoleucine]: at Thermotoga-derived TyrRS, the “Detection of the activity … (Thermotoga)” value was “−”. Besides, the “Detection of the activity … ProRS” value at Thermotoga-derived ProRS is reported as “−”. The “Detection of the activity … HisRS” value on Thermotoga-derived HisRS is recorded as “−”.
With `CC(C)C[C@H](N)C(=O)O` [Leu, L-leucine], at Thermotoga-derived TyrRS, the “Detection of the activity … (Thermotoga)” value is on record as “−”. At Thermotoga-derived ProRS, the “Detection of the activity … ProRS” value was “−”. The “Detection of the activity … HisRS” value on Thermotoga-derived HisRS is reported as “−”.
For `NCCCC[C@H](N)C(=O)O` [Lys, L-lysine], at Thermotoga-derived TyrRS, the “Detection of the activity … (Thermotoga)” value is “−”. The “Detection of the activity … ProRS” value on Thermotoga-derived ProRS is listed as “−”. For the same molecule, the “Detection of the activity … HisRS” value on Thermotoga-derived HisRS is reported as “−”.
Regarding `CSCC[C@H](N)C(=O)O` [Met, L-methionine], the “Detection of the activity … (Thermotoga)” value at Thermotoga-derived TyrRS is “−”. The “Detection of the activity … ProRS” value on Thermotoga-derived ProRS is given as “−”. On Thermotoga-derived HisRS, the “Detection of the activity … HisRS” value was “−”.
Take `N[C@@H](Cc1ccccc1)C(=O)O` [Phe, L-phenylalanine]: the “Detection of the activity … (Thermotoga)” value on Thermotoga-derived TyrRS is “−”. For the same molecule, the “Detection of the activity … ProRS” value on Thermotoga-derived ProRS is recorded as “−”. Further, the “Detection of the activity … HisRS” value at Thermotoga-derived HisRS was “−”.
As for `O=C(O)[C@@H]1CCCN1` [Pro, L-proline], the “Detection of the activity … (Thermotoga)” value on Thermotoga-derived TyrRS is reported as “−”. In addition, on Thermotoga-derived ProRS, the “Detection of the activity … ProRS” value was “+”. The “Detection of the activity … HisRS” value on Thermotoga-derived HisRS is reported as “−”.
On to `N[C@@H](CO)C(=O)O` [Ser, L-serine], for which, at Thermotoga-derived TyrRS, the “Detection of the activity … (Thermotoga)” value is recorded as “−”. Besides, the “Detection of the activity … ProRS” value at Thermotoga-derived ProRS is on record as “−”. Further, the “Detection of the activity … HisRS” value on Thermotoga-derived HisRS is “−”.
With `C[C@@H](O)[C@H](N)C(=O)O` [Thr, L-threonine], the “Detection of the activity … (Thermotoga)” value at Thermotoga-derived TyrRS is on record as “−”. Further, the “Detection of the activity … ProRS” value on Thermotoga-derived ProRS was “−”. Further, at Thermotoga-derived HisRS, the “Detection of the activity … HisRS” value is on record as “−”.
As for `N[C@@H](Cc1c[nH]c2ccccc12)C(=O)O` [Trp, L-tryptophan], the “Detection of the activity … (Thermotoga)” value at Thermotoga-derived TyrRS is “−”. Moreover, on Thermotoga-derived ProRS, the “Detection of the activity … ProRS” value is listed as “−”. Also, at Thermotoga-derived HisRS, the “Detection of the activity … HisRS” value is listed as “−”.
`N[C@@H](Cc1ccc(O)cc1)C(=O)O` [Tyr, L-tyrosine]: the “Detection of the activity … (Thermotoga)” value at Thermotoga-derived TyrRS is “+”. The “Detection of the activity … ProRS” value on Thermotoga-derived ProRS is “−”. Besides, the “Detection of the activity … HisRS” value at Thermotoga-derived HisRS is on record as “−”.
For `CC(C)[C@H](N)C(=O)O` [Val, L-valine], the “Detection of the activity … (Thermotoga)” value at Thermotoga-derived TyrRS is “−”. Besides, at Thermotoga-derived ProRS, the “Detection of the activity … ProRS” value was “−”. For the same molecule, at Thermotoga-derived HisRS, the “Detection of the activity … HisRS” value was “−”.
